Results taken from PubChem BioAssay AID1912 (The Scripps Research Institute Molecular Screening Center, 2009).
The source made the active and inactive calls. No rule for the calls is given here.

Target: Luciferin 4-monooxygenase (Photinus pyralis) (UniProt P08659)
Assay: firefly luciferase inhibitor potency, HSP90 counter-screen, dose response, artefact control for HSP90 inhibitor project, biochemical, luminescence (AID 1912)
Settings: purified firefly luciferase, luminescence inhibition

Luciferin 4-monooxygenase (Photinus pyralis), sequence (P08659 whole entry, looked up): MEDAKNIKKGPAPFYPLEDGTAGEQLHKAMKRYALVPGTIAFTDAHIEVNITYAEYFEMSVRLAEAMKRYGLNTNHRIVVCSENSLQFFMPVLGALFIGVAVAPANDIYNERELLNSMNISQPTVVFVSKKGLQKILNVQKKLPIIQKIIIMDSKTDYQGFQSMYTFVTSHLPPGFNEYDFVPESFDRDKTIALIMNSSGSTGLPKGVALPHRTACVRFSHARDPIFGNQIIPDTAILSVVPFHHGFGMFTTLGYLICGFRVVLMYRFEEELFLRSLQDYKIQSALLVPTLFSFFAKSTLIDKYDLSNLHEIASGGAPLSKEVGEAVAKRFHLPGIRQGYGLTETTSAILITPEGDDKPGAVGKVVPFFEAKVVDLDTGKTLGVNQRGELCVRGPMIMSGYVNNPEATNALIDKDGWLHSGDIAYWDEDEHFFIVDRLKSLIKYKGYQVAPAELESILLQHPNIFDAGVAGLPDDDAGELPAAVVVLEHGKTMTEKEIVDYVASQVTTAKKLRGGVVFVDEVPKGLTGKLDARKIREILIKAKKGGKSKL

Compound	IC50
CCOC(=O)c1csc(NC(=O)c2ccc3c(c2)OCCO3)n1	> 60 µM (inactive)
COc1ccc(N(/N=C2\Sc3ccccc3C2=O)C(C)=O)cc1	> 60 µM (inactive)
CCc1ccc(OCc2ccc(C(=O)OC)o2)cc1	> 60 µM (inactive)
CN1C(=O)S/C(=C/c2ccc(OCc3cccc(C(=O)O)c3)cc2)C1=O	> 20 µM (inactive)
CC(C)Sc1nc(SCC(=O)NCc2ccco2)c2c3c(sc2n1)COC(C)(C)C3	> 60 µM (inactive)
Cc1cccc(N(O)C(=O)Nc2cccc(Cl)c2)c1	> 60 µM (inactive)
C=CCOc1c(CNc2cccc(C(=O)O)c2)cccc1OC	> 60 µM (inactive)
COc1cccc(-c2cc3nc4c(c(NCC(C)(C)CN(C)C)n3n2)CCCC4)c1	> 60 µM (inactive)
Cc1ccc(/C=C2/C(=O)c3ccc(C(=O)O)cc3C2=O)o1	> 60 µM (inactive)
CCOC(=O)c1csc(NC(=O)c2cc3ccccc3o2)n1	> 60 µM (inactive)
CC(=O)CSc1ccc(-c2nc3ccccc3[nH]2)cn1	> 60 µM (inactive)
CC(=O)Oc1ccc(Nc2ccccc2)cc1	> 60 µM (inactive)
COC(=O)c1ccc2nc(NC(=O)C3CC3)sc2c1	> 60 µM (inactive)
CCN(CC)c1ccc2cc(NC(=O)CCC(=O)O)c(=O)oc2c1	> 60 µM (inactive)
COC(=O)c1ccccc1OCCCOc1ccc(C)cc1OC	> 60 µM (inactive)
Cc1cc(NC(=O)c2coc(=O)c(Br)c2)ccc1C(C)C	> 60 µM (inactive)
COc1cc(/C=N/Nc2ccc(Cl)c(C(=O)O)c2)ccc1OC(=O)c1ccc(F)cc1	> 60 µM (inactive)
CCOc1ccc(-c2nc(CN3CCCCC3CCn3cccn3)c(C)o2)cc1 (stereo unspecified)	> 60 µM (inactive)
Cc1ccc2nc(NC(=O)CSCC(=O)OCC(=O)c3ccccc3)sc2c1	> 60 µM (inactive)
Cc1ccc(C(=O)CN2C(=O)c3ccccc3S2(=O)=O)cc1	> 60 µM (inactive)
COc1cc(/C=N/Nc2ccc(Cl)c(C(=O)O)c2)ccc1OC(=O)c1ccco1	> 60 µM (inactive)
CCOC(=O)c1sc(NC(=O)c2ccc(C)o2)nc1C	> 60 µM (inactive)
O=C(O)c1ccc(S(=O)(=O)/N=C2\C=C(Nc3ccccc3F)C(=O)c3ccccc32)cc1	> 60 µM (inactive)
O=C(O)c1cccc(NC(=S)NC(NC(=O)c2cccc([N+](=O)[O-])c2)C(Cl)(Cl)Cl)c1 (stereo unspecified)	> 60 µM (inactive)
C#CCn1cc(/C=C2\NC(=O)NC2=O)c2ccccc21	> 60 µM (inactive)
O=C(O)c1ccc(NC2=C/C(=N/S(=O)(=O)c3ccccc3)c3ccccc3C2=O)cc1	> 60 µM (inactive)

Compound	IC50
COC(=O)c1ccc(N/C=C/C(=O)c2ccccc2)cc1	inactive
Cc1cc2ccccc2n1CCNC(=O)c1ccccc1	> 60 µM (inactive)
Cc1nc(CS(=O)(=O)c2ccc(Cl)cc2)sc1C(=O)O	> 60 µM (inactive)
Cc1cc(C)c2nc(N3CCC(C(=O)NCCCN4CC(C)CC(C)C4)CC3)sc2c1 (stereo unspecified)	> 60 µM (inactive)
COc1ccc(/C=C/c2noc(-c3ccccc3OC(C)=O)n2)cc1	inactive
Cc1ccccc1NC1=C/C(=N\S(=O)(=O)c2cccs2)c2ccccc2C1=O	> 20 µM (inactive)
Cc1oc(-c2ccc(-c3ccccc3)cc2)nc1CN(C)C1CCOC1 (stereo unspecified)	> 60 µM (inactive)
COC(=O)c1ccc(COc2ccc3c(C)c(C)c(=O)oc3c2)o1	> 60 µM (inactive)
O=C(O)c1cccc(-n2c(O)c(C=C3N=c4ccccc4=N3)sc2=S)c1	> 60 µM (inactive)
CC1CCN(c2ccc(-c3cccc(NC(=O)C(F)(F)F)c3)nn2)CC1	> 60 µM (inactive)
O=c1oc2ccc(Cl)cc2nc1/C=C(\O)c1cccs1	> 60 µM (inactive)
Cc1ccc2oc(=O)c(/C=C(\O)c3ccco3)nc2c1	> 60 µM (inactive)
COC(=O)c1cc(C)nc2c1C(=O)C(=O)C=C2N1CCOCC1	> 20 µM (inactive)
O=S(=O)(Cc1ccccc1)N(O)c1ccccc1	> 60 µM (inactive)
Cc1ccc(C(=O)CSc2ccccc2C(=O)O)cc1	inactive
CCOC(=O)C1CCCN(C(=O)c2sc3nc(-c4ccc(OC)cc4)cn3c2C)C1 (stereo unspecified)	> 60 µM (inactive)
CC(=O)Nc1ccc(NC2=C/C(=N/S(=O)(=O)c3cccs3)c3ccccc3C2=O)cc1	> 60 µM (inactive)
O=[N+]([O-])c1ccc(N=Nc2ncc[nH]2)cc1	> 60 µM (inactive)
COc1cc(/C=N/Nc2ccc(Cl)c(C(=O)O)c2)ccc1OC(=O)c1cccs1	> 60 µM (inactive)
O=[N+]([O-])c1ccc(S(=O)(=O)N2CCN=C2SCc2ccc(F)cc2)cc1	> 60 µM (inactive)
COCCn1c(C)cc(C(=O)Cn2nc(C(=O)O)c3ccccc3c2=O)c1C	inactive
O=c1oc2ccc(Cl)cc2nc1/C=C(\O)c1ccco1	> 60 µM (inactive)
O=C(CN1C(=O)c2ccccc2S1(=O)=O)c1ccc2c(c1)OCCO2	> 60 µM (inactive)
CN(C)c1ccc(C2Nc3cccc4cccc(c34)N2)cc1	> 60 µM (inactive)
Cc1ccc(S(=O)(=O)/N=C2\C=C(Nc3cccc(C(=O)O)c3)C(=O)c3ccccc32)c(C)c1	> 60 µM (inactive)
COC(=O)c1ccc(NC(=O)c2ccc(C)cc2)o1	> 60 µM (inactive)

Compound	IC50
CC(=O)CSc1nnc(-c2ccc3c(c2)OCO3)o1	inactive
CS(=O)(=O)c1ccc(-c2cn3cc(C(=O)O)ccc3n2)cc1	inactive
CCOC(=O)c1csc(NC(=O)c2ccc(OCC)cc2)n1	> 60 µM (inactive)
CCOC(=O)C1=C(c2ccc(OC)cc2)C(=O)c2ccccc2C1=O	> 60 µM (inactive)
Cc1nc(NC(=O)c2cccc(Cl)c2)sc1C(=O)N1CCCCC1	> 60 µM (inactive)
Cc1ccccc1NC1=C/C(=N\S(=O)(=O)c2ccc(C(=O)O)cc2)c2ccccc2C1=O	inactive
Cc1[nH]n(-c2ccccc2)c(=O)c1N=Nc1ccc(C(N)=O)cc1	> 60 µM (inactive)
Cc1ccc(/C=C2\SC(=S)N(CCCC(=O)Nc3ccccn3)C2=O)cc1	> 60 µM (inactive)
[O-]/[N+](=C\c1ccco1)c1ccc(Cl)cc1	> 60 µM (inactive)
CCCCn1c(NC(=O)c2ccccc2Cl)c(C#N)c2nc3ccccc3nc21	> 60 µM (inactive)
Cc1nc(NC(=O)c2ccc(F)cc2)sc1C(=O)Nc1ccc2c(c1)CCC2	> 60 µM (inactive)
O=C1c2cc(F)ccc2-n2c1nc1ccccc1c2=O	> 60 µM (inactive)
COC(=O)c1ccccc1OCCCOc1ccc(C=O)cc1OC	> 60 µM (inactive)
O=C(O)c1cc(N/N=C/c2c[nH]c3ccccc23)ccc1Cl	> 60 µM (inactive)
COc1cc(N2Cc3ccccc3C2)ccc1C=O	> 60 µM (inactive)
Cc1c(-c2nc(-c3ccc(C(C)(C)C)cc3)no2)n(C)oc1=O	> 60 µM (inactive)
COc1ccc(-c2cc3c(=O)n(CC(=O)NCCCN4CCC(Cc5ccccc5)CC4)ncn3n2)cc1	inactive
CC1=NN(c2ccccc2)C(=O)/C1=C\N(O)c1ccccc1	> 60 µM (inactive)
Cc1nc(NC(=O)/C=C/c2ccccc2)sc1C(=O)Nc1ccccc1Cl	> 60 µM (inactive)
CCCCOc1ccc(-c2cc(C(=O)NNC(=S)NCC)c3ccccc3n2)cc1	inactive
COc1ccc(-c2cn3c(C)c(C(=O)Nc4cccc(C)n4)sc3n2)cc1	inactive
CCOC(=O)c1ccc(-c2ccc(C=O)o2)cc1	> 60 µM (inactive)
COc1cc(/C=N/Nc2ccc(Cl)c(C(=O)O)c2)ccc1OC(=O)c1ccccc1F	> 60 µM (inactive)
CCC(C)c1ccc(OCc2ccc(C(=O)OC)o2)cc1 (stereo unspecified)	> 60 µM (inactive)
Nc1c(-c2ccccc2)cnn1-c1ccc(C(=O)O)cc1	inactive
O=C(CN1C(=O)c2ccccc2S1(=O)=O)N1CCc2ccccc21	> 60 µM (inactive)

Compound	IC50
C=CCc1ccc(OCc2ccc(C(=O)OC)o2)c(OC)c1	> 60 µM (inactive)
COC(=O)C[C@]1(C(=O)OC)CN(C#N)N(c2ccc(Cl)cc2)C12c1ccccc1-c1ccccc12	> 60 µM (inactive)
COC(=O)c1ccc(COc2ccc3c(c2)CCC3)o1	> 60 µM (inactive)
O=C(Cc1ccccc1)N1CCN(S(=O)(=O)c2ccc([N+](=O)[O-])cc2)CC1	> 60 µM (inactive)
Cc1ccc2oc(=O)c(/C=C(\O)c3cccs3)nc2c1	> 60 µM (inactive)
Nc1cc(-c2ccccc2)ccc1O	> 60 µM (inactive)
Cc1c(-c2nc(-c3ccc(C(F)(F)F)cc3)no2)n(C)oc1=O	> 60 µM (inactive)
COc1ccc(C(=O)Oc2ccc(/C=N/Nc3ccc(Cl)c(C(=O)O)c3)cc2OC)cc1	> 60 µM (inactive)
CCN(CC)c1ccc(SS(=O)(=O)O)cc1	> 60 µM (inactive)
Cc1cc2ccccc2n1CCNC(=O)c1cccs1	> 60 µM (inactive)
O=C(OCc1ccccn1)c1ccc(COc2ccc3ccccc3c2)o1	> 60 µM (inactive)
Cc1cc(C)c(S(=O)(=O)/N=C2\C=C(Nc3ccc(C(=O)O)cc3)C(=O)c3ccccc32)c(C)c1	> 60 µM (inactive)
COC(=O)NCCOC(=O)N(O)c1ccc(Br)cc1	> 60 µM (inactive)
O=C(CN1C(=O)c2ccccc2S1(=O)=O)c1ccc2c(c1)OCCCO2	inactive
CC(C)(C)c1ccc(C(=O)c2c[nH]c(C(=O)O)c2)cc1	inactive
O=C(CN1C(=O)c2ccccc2S1(=O)=O)c1ccccc1Cl	inactive
CCc1ccc(S(=O)(=O)/N=C2\C=C(Nc3ccc(O)cc3)C(=O)c3ccccc32)cc1	> 60 µM (inactive)
O=C(O)CSCC(=O)Nc1ccc(C2CCCCC2)cc1	> 60 µM (inactive)
C=CCOC(=O)c1sc(NC(=O)c2ccc(OC)cc2)nc1C	> 60 µM (inactive)
CCOC(=O)c1csc(COc2ccc(OC)cc2)n1	> 60 µM (inactive)
CCc1ccc(Nc2n[n+](-c3ccccc3)c(-c3ccc(N(CC)CC)cc3)s2)cc1	> 60 µM (inactive)
Cc1ccc(OCc2ccc(C(=O)O)o2)cc1C	inactive
CC(=O)Nc1ccccc1OCC(=O)c1cc(C)n(Cc2cccs2)c1C	> 60 µM (inactive)
